Experimental data: the NIST ThermoML archive (doi:10.1021/acs.jced.9b00248)

Experiment: mn = molality of the nth substance listed, in mol/kg
Conditions: Liquid; for viscosity: Vibrating wire viscometry; for mass density: Vibrating tube method

[Ca+2].[Cl-].[Cl-] [calcium chloride] + O
Conditions | mass density [kg/m3] | viscosity [mPa·s]
274.75 K, 1300 kPa, m1 = 1 | – | 2.142
274.75 K, 49900 kPa, m1 = 1 | – | 2.117
274.75 K, 99700 kPa, m1 = 1 | – | 2.096
274.87 K, 1270 kPa, m1 = 1 | 1088.12 | –
274.87 K, 15180 kPa, m1 = 1 | 1094.18 | –
274.87 K, 30070 kPa, m1 = 1 | 1100.27 | –
274.87 K, 49880 kPa, m1 = 1 | 1108.27 | –
274.87 K, 69750 kPa, m1 = 1 | 1115.89 | –
274.87 K, 99730 kPa, m1 = 1 | 1126.88 | –
274.98 K, 1310 kPa, m1 = 2.5 | 1201.94 | –
274.98 K, 15210 kPa, m1 = 2.5 | 1207.74 | –
274.98 K, 30100 kPa, m1 = 2.5 | 1212.77 | –
274.98 K, 49930 kPa, m1 = 2.5 | 1219.37 | –
274.98 K, 69770 kPa, m1 = 2.5 | 1225.9 | –
274.98 K, 99750 kPa, m1 = 2.5 | 1235.53 | –
296.18 K, 1280 kPa, m1 = 1 | 1082.39 | –
296.18 K, 15170 kPa, m1 = 1 | 1087.93 | –
296.18 K, 30070 kPa, m1 = 1 | 1093.68 | –
296.18 K, 49900 kPa, m1 = 1 | 1101.19 | –
296.18 K, 69750 kPa, m1 = 1 | 1108.4 | –
296.18 K, 99730 kPa, m1 = 1 | 1118.84 | –
296.21 K, 30100 kPa, m1 = 1 | – | 1.224
296.21 K, 99700 kPa, m1 = 1 | – | 1.237
296.22 K, 1310 kPa, m1 = 2.5 | 1192.77 | –
296.22 K, 15240 kPa, m1 = 2.5 | 1197.73 | –
296.22 K, 30130 kPa, m1 = 2.5 | 1202.82 | –
296.22 K, 49960 kPa, m1 = 2.5 | 1209.46 | –
296.22 K, 69780 kPa, m1 = 2.5 | 1215.91 | –
296.22 K, 99740 kPa, m1 = 2.5 | 1225.32 | –
323.23 K, 1280 kPa, m1 = 2.5 | 1179.3 | –
323.23 K, 15180 kPa, m1 = 2.5 | 1184.63 | –
323.23 K, 30060 kPa, m1 = 2.5 | 1189.89 | –
323.23 K, 49910 kPa, m1 = 2.5 | 1196.52 | –
323.23 K, 69770 kPa, m1 = 2.5 | 1202.94 | –
323.23 K, 99730 kPa, m1 = 2.5 | 1212.15 | –
323.31 K, 1240 kPa, m1 = 1 | 1071.6 | –
323.31 K, 15190 kPa, m1 = 1 | 1077.19 | –
323.31 K, 30070 kPa, m1 = 1 | 1082.81 | –
323.31 K, 49880 kPa, m1 = 1 | 1090.06 | –
323.31 K, 69760 kPa, m1 = 1 | 1097.04 | –
323.31 K, 99750 kPa, m1 = 1 | 1107.2 | –
323.4 K, 1300 kPa, m1 = 1 | – | 0.736
323.4 K, 15200 kPa, m1 = 1 | – | 0.734
323.4 K, 30100 kPa, m1 = 1 | – | 0.732
323.4 K, 49900 kPa, m1 = 1 | – | 0.728
323.4 K, 69800 kPa, m1 = 1 | – | 0.725
348.19 K, 1320 kPa, m1 = 2.5 | 1165.84 | –
348.19 K, 15220 kPa, m1 = 2.5 | 1170.56 | –
348.19 K, 30110 kPa, m1 = 2.5 | 1175.97 | –
348.19 K, 49950 kPa, m1 = 2.5 | 1182.84 | –
348.19 K, 69790 kPa, m1 = 2.5 | 1189.55 | –
348.19 K, 99790 kPa, m1 = 2.5 | 1199.01 | –
348.2 K, 1300 kPa, m1 = 1 | 1058.82 | –
348.2 K, 15220 kPa, m1 = 1 | 1064.57 | –
348.2 K, 30100 kPa, m1 = 1 | 1070.33 | –
348.2 K, 49930 kPa, m1 = 1 | 1077.65 | –
348.2 K, 69790 kPa, m1 = 1 | 1084.72 | –
348.2 K, 99770 kPa, m1 = 1 | 1094.89 | –
373.2 K, 1350 kPa, m1 = 2.5 | 1151.73 | –
373.2 K, 15250 kPa, m1 = 2.5 | 1156.76 | –
373.2 K, 30140 kPa, m1 = 2.5 | 1161.97 | –
373.2 K, 49960 kPa, m1 = 2.5 | 1168.74 | –
373.2 K, 69820 kPa, m1 = 2.5 | 1175.25 | –
373.2 K, 99780 kPa, m1 = 2.5 | 1184.69 | –
373.22 K, 1320 kPa, m1 = 1 | 1042.78 | –
373.22 K, 15230 kPa, m1 = 1 | 1048.82 | –
373.22 K, 30130 kPa, m1 = 1 | 1054.88 | –
373.22 K, 49940 kPa, m1 = 1 | 1062.61 | –
373.22 K, 69790 kPa, m1 = 1 | 1070 | –
373.22 K, 99790 kPa, m1 = 1 | 1080.38 | –
373.45 K, 30100 kPa, m1 = 1 | – | 0.393
373.45 K, 49900 kPa, m1 = 1 | – | 0.399
398.26 K, 1360 kPa, m1 = 2.5 | 1134.93 | –
398.26 K, 15270 kPa, m1 = 2.5 | 1140.45 | –
398.26 K, 30160 kPa, m1 = 2.5 | 1146.01 | –
398.26 K, 49970 kPa, m1 = 2.5 | 1153.12 | –
398.26 K, 69820 kPa, m1 = 2.5 | 1159.89 | –
398.26 K, 99800 kPa, m1 = 2.5 | 1169.63 | –
398.28 K, 1320 kPa, m1 = 1 | 1024.8 | –
398.28 K, 15230 kPa, m1 = 1 | 1031.2 | –
398.28 K, 30120 kPa, m1 = 1 | 1037.76 | –
398.28 K, 49940 kPa, m1 = 1 | 1045.99 | –
398.28 K, 69780 kPa, m1 = 1 | 1053.7 | –
398.28 K, 99790 kPa, m1 = 1 | 1064.71 | –
398.33 K, 15200 kPa, m1 = 1 | – | 0.31
398.33 K, 30100 kPa, m1 = 1 | – | 0.315
398.33 K, 49900 kPa, m1 = 1 | – | 0.321
423.46 K, 1400 kPa, m1 = 1 | – | 0.255
423.46 K, 50000 kPa, m1 = 1 | – | 0.266
423.46 K, 69800 kPa, m1 = 1 | – | 0.272
423.6 K, 1340 kPa, m1 = 1 | 1004.42 | –
423.6 K, 1360 kPa, m1 = 2.5 | 1116.33 | –
423.6 K, 15250 kPa, m1 = 1 | 1011.3 | –
423.6 K, 15260 kPa, m1 = 2.5 | 1122.22 | –
423.6 K, 30150 kPa, m1 = 1 | 1018.56 | –
423.6 K, 30150 kPa, m1 = 2.5 | 1128.37 | –
423.6 K, 49950 kPa, m1 = 1 | 1027.46 | –
423.6 K, 49980 kPa, m1 = 2.5 | 1136 | –
423.6 K, 69810 kPa, m1 = 2.5 | 1143.19 | –
423.6 K, 69820 kPa, m1 = 1 | 1035.71 | –
423.6 K, 99790 kPa, m1 = 2.5 | 1153.51 | –
423.6 K, 99810 kPa, m1 = 1 | 1047.43 | –
448.43 K, 1400 kPa, m1 = 1 | – | 0.226
448.43 K, 69800 kPa, m1 = 1 | – | 0.235
448.83 K, 1360 kPa, m1 = 2.5 | 1096.34 | –
448.83 K, 15250 kPa, m1 = 2.5 | 1102.89 | –
448.83 K, 30150 kPa, m1 = 2.5 | 1109.65 | –
448.83 K, 49970 kPa, m1 = 2.5 | 1117.84 | –
448.83 K, 69820 kPa, m1 = 2.5 | 1125.62 | –
448.83 K, 99830 kPa, m1 = 2.5 | 1136.51 | –
448.84 K, 1360 kPa, m1 = 1 | 982.19 | –
448.84 K, 15270 kPa, m1 = 1 | 989.78 | –
448.84 K, 30160 kPa, m1 = 1 | 997.78 | –
448.84 K, 49980 kPa, m1 = 1 | 1007.39 | –
448.84 K, 69830 kPa, m1 = 1 | 1016.54 | –
448.84 K, 99810 kPa, m1 = 1 | 1029.19 | –
